Test results from patent publication US20050090398A1, “Novel tetrazole derivative useful as herbicides” (priority 2002, published 2005).

How the values were obtained:
Setaria viridis = assay: Test of post-emergence foliage treatment against field weeds; format: in vivo; details: post-emergence foliage treatment at 2-leaf stage, 2.0 kg/ha effective component, examined 3 weeks after treatment
Description: (§1) Preparation of formulation of the active compound • Carrier: Acetone 5 parts by weight • Emulsifier: Benzyloxy polyglycol ether 1 part by weight
(§2) A formulation of an active substance is obtained as an emulsifiable concentrate by mixing 1 part by weight of the active compound with the above-mentioned amount of the carrier and emulsifier. A prescribed amount of the formulation is diluted with water.
(§3) In a green house, seeds of Echinochloa crusgalli, Setaria viridis, Amaranthus retro-flexus and Polygonum were sown in a 120 cm^2 pot filled with field soil and covered with soil. 10 days after the sowing and soil covering (weeds were 2-leaf stage in average) a diluted solution of the prescribed chemical amount prepared in the same manner as in the above-mentioned Test Example 1 was spread uniformly on the foliage of the test plants in each test pot. The herbicidal effect was examined 3 weeks after the treatment.

Amaranthus retroflexus = assay: as above; format: in vivo; details: post-emergence foliage treatment at 2-leaf stage, 2.0 kg/ha effective component, examined 3 weeks after treatment
Description: as §1, §2, §3

Echinochloa crusgalli = assay: as above; format: in vivo; details: post-emergence foliage treatment at 2-leaf stage, 2.0 kg/ha effective component, examined 3 weeks after treatment
Description: as §1, §2, §3

Polygonum = assay: as above; format: in vivo; details: post-emergence foliage treatment at 2-leaf stage, 2.0 kg/ha effective component, examined 3 weeks after treatment
Description: as §1, §2, §3

transplanted paddy rice = assay: Paddy field test: safety to transplanted paddy rice; format: in vivo, paddy rice (variety: Nihonbare); details: 0.25 kg/ha active component, applied to water surface 5 days after rice transplantation, examined after 3 weeks
Description: as §1, §2
(§4) In a green house 3 seedlings of paddy rice (variety: Nihonbare) of 2.5 leaf stage (15 cm tall) were transplanted in a 500 cm^2 pot filled with paddy field soil. Then seeds or tubers of Echinochloa crusgalli, Cyperus difformis L., Scirpus juncoides Roxburgh, Monochoria vaginalis Presl, broad-leaved weeds (Lindernia Procumbens Philcox, Rotala indica Koehne, Elatine triandra Schk, Ammannia multiflora Roxb., Dopatrium junceum Hammilt etc.), Cyperus serotinus Rottboel and Sagittaria pygmaea Miq were inoculated and water was poured to a depth of about 2-3 cm. 5 days after the rice transplantation a prescribed, diluted solution of each formulation of active compound prepared according to the aforementioned preparation method was applied to the surface of water. After the treatment the water depth of 3 cm was maintained and the herbicidal effect was examined after 3 weeks from the treatment. The herbicidal effect was rated 100% in the case of complete death and as 0% in the case of no herbicidal effect.

paddy field weeds = assay: Test for herbicidal effect against paddy field weeds; format: in vivo; details: 0.25 kg/ha active component, applied to water surface 5 days after rice transplantation, examined after 3 weeks
Description: as §1, §2, §4

Structure (SMILES)	herbicidal activity against Setaria viridis (Setaria viridis) [%]	herbicidal activity against Amaranthus retroflexus (Amaranthus retroflexus) [%]	herbicidal activity against Echinochloa crusgalli (Echinochloa crusgalli) [%]	herbicidal activity against Polygonum (Polygonum) [%]	safety to the transplanted paddy rice (transplanted paddy rice)	herbicidal effect against paddy field weeds (paddy field weeds)
O=C1CCCC(=O)C1C(=O)c1ccc(Cl)c(OCCn2cnnn2)c1Cl [compound 212]	90	90	90	90		
O=C1CCCC(Sc2ccccc2)=C1C(=O)c1ccc(Cl)c(OCCn2ncnn2)c1Cl [compound 2024]					safety to the transplanted paddy rice	sufficient herbicidal effect
Cc1nnn(CCOc2c(Cl)ccc(C(=O)C3C(=O)CCCC3=O)c2Cl)n1 [compound 2080]	90	90	90	90		
O=C1CCCC(Cl)=C1C(=O)c1ccc(Cl)c(OCCn2cnnn2)c1Cl [compound 258]	90	90	90	90		
O=C(c1ccc(Br)c(OCCn2cnnn2)c1Br)C1C(=O)C2CCC(C2)C1=O (stereo not drawn) [compound 1239]	90	90	90	90		
O=C1CCCC(=O)C1C(=O)c1ccc(Br)c(OCCn2cnnn2)c1Br [compound 1234]	90	90	90	90		
CS(=O)(=O)c1ccc(C(=O)C2C(=O)CCCC2=O)c(Cl)c1OCCn1cnnn1 [compound 715]	90	90	90	90		
CC1CC(=O)C(C(=O)c2ccc(Cl)c(OCCn3cnnn3)c2Cl)C(=O)C1 (stereo not drawn) [compound 215]	90	90	90	90		
CCn1ncc(C(=O)c2ccc(Br)c(OCCn3cnnn3)c2C)c1O [compound 1593]	90	90	90	90		
Cc1ccc(SC2=C(C(=O)c3ccc(S(C)(=O)=O)c(Cn4ncnn4)c3Cl)C(=O)CCC2)cc1 [compound 2329]					safety to the transplanted paddy rice	sufficient herbicidal effect
CCn1ncc(C(=O)c2ccc(Cl)c(OCCn3ncnn3)c2Cl)c1O [compound 2077]	90	90	90	90		
CCn1ncc(C(=O)c2ccc([N+](=O)[O-])c(OCCn3cnnn3)c2C)c1O [compound 1693]	90	90	90	90		
CS(=O)(=O)c1ccc(C(=O)C2=C(Cl)CCCC2=O)c(Cl)c1Cn1ncnn1 [compound 2347]	90	90	90	90		
CSc1nnnn1Cc1c(S(C)(=O)=O)ccc(C(=O)C2C(=O)CCCC2=O)c1Cl [compound 650]	90	90	90	90		
CCn1ncc(C(=O)c2ccc(Cl)c(OCCn3cnnn3)c2Cl)c1O [compound 272]	90	90	90	90		
Cc1cccc(C)c1SC1=C(C(=O)c2ccc(S(C)(=O)=O)c(Cn3ncnn3)c2Cl)C(=O)CCC1 [compound 2335]					safety to the transplanted paddy rice	sufficient herbicidal effect
O=C(c1ccc(Br)c(OCCn2ncnn2)c1Br)C1C(=O)C2CCC(C2)C1=O (stereo not drawn) [compound 3043]	90	90	90	90		
O=C1CCCC(=O)C1C(=O)c1ccc(Cl)c(OCCn2ncnn2)c1Cl [compound 2017]	90	90	90	90		
CS(=O)(=O)c1ccc(C(=O)C2C(=O)CCCC2=O)c(Cl)c1Cn1cnnn1 [compound 495]	90	90	90	90		
O=C1CCCC(Cl)=C1C(=O)c1ccc(Cl)c(OCCn2ncnn2)c1Cl [compound 2063]	90	90	90	90		
CS(=O)(=O)c1ccc(C(=O)C2C(=O)CCCC2=O)c(Cl)c1OCCn1ncnn1 [compound 2521]	90	90	90	90		
Cc1nnn(CCOc2c(Cl)ccc(C(=O)C3C(=O)CC(C)(C)CC3=O)c2Cl)n1 [compound 2081]	90	90	90	90		
CC1(C)CC(=O)C(C(=O)c2ccc(Cl)c(OCCn3cnnn3)c2Cl)C(=O)C1 [compound 213]	90	90	90	90		
CS(=O)(=O)c1ccc(C(=O)C2C(=O)CCCC2=O)c(Cl)c1Cn1ncnn1 [compound 2301]	90	90	90	90		
O=C(c1ccc(Cl)c(OCCn2ncnn2)c1Cl)C1C(=O)C2CCC(C2)C1=O (stereo not drawn) [compound 2022]	90	90	90	90		
O=C1CCCC(=O)C1C(=O)c1ccc(Br)c(OCCn2ncnn2)c1Br [compound 3038]	90	90	90	90		
Cc1nnnn1CCOc1c(Cl)ccc(C(=O)C2C(=O)CCCC2=O)c1Cl [compound 275]	90	90	90	90		
